Results as given in the supplement of paper PMC10307832.

Legend:
Test in all cases: relative viability (nuclei count vs DMSO), 5 days (fraction); higher = more cells survive
[1] = compound: C[C@@H](Oc1cc(-c2cnn(C3CCNCC3)c2)cnc1N)c1c(Cl)ccc(F)c1Cl [Crizotinib] + CS(=O)(=O)N1CCN(Cc2cc3nc(-c4cccc5[nH]ncc45)nc(N4CCOCC4)c3s2)CC1 [Pictilisib] (partner 1 µM)
In short: (§1)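 Lung cancer cell lines in 1536-well plates got either a single drug or a fixed anchor-drug dose together with five library-drug doses (not always all listed) in √10 steps, by pin tool, on the day after seeding. Nuclei were counted after 5 days, and relative viability is the treated-to-vehicle ratio of nuclei counts. Values are medians of duplicate plates.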

[2] = compound: CC(C)C[C@H](NC(=O)[C@H](CCc1ccccc1)NC(=O)CN1CCOCC1)C(=O)N[C@@H](Cc1ccccc1)C(=O)N[C@@H](CC(C)C)C(=O)[C@@]1(C)CO1 [Carfilzomib] + COc1cc2c(Oc3ccc(NC(=O)C4(C(=O)Nc5ccc(F)cc5)CC4)cc3F)ccnc2cc1OCCCN1CCOCC1 [Foretinib] (partner 0.25 µM)
In short: as §1

[3] = compound: CC(C)C[C@H](NC(=O)[C@H](CCc1ccccc1)NC(=O)CN1CCOCC1)C(=O)N[C@@H](Cc1ccccc1)C(=O)N[C@@H](CC(C)C)C(=O)[C@@]1(C)CO1 [Carfilzomib] + NC(=O)Nc1cc(-c2cccc(F)c2)sc1C(=O)N[C@H]1CCCNC1 [AZD7762] (partner 0.2 µM)
In short: as §1

[4] = compound: CC(C)C[C@H](NC(=O)[C@H](CCc1ccccc1)NC(=O)CN1CCOCC1)C(=O)N[C@@H](Cc1ccccc1)C(=O)N[C@@H](CC(C)C)C(=O)[C@@]1(C)CO1 [Carfilzomib] + CC(=O)Nc1cccc(-n2c(=O)n(C3CC3)c(=O)c3c(Nc4ccc(I)cc4F)n(C)c(=O)c(C)c32)c1 [Trametinib] (partner 0.02 µM)
In short: as §1

| Cell Line | relative viability ([1]; first compound 0.01 µM) | relative viability ([1]; first compound 0.03162 µM) | relative viability ([1]; first compound 0.1 µM) | relative viability ([1]; first compound 0.3162 µM) | relative viability ([1]; first compound 1 µM) | relative viability ([2]; first compound 0.003162 µM) | relative viability ([2]; first compound 0.01 µM) | relative viability ([2]; first compound 0.03162 µM) | relative viability ([2]; first compound 0.1 µM) | relative viability ([3]; first compound 0.001 µM) | relative viability ([3]; first compound 0.003162 µM) | relative viability ([3]; first compound 0.01 µM) | relative viability ([3]; first compound 0.03162 µM) | relative viability ([3]; first compound 0.1 µM) | relative viability ([4]; first compound 0.003162 µM) | relative viability ([4]; first compound 0.01 µM) | relative viability ([4]; first compound 0.03162 µM) | relative viability ([4]; first compound 0.1 µM) | relative viability ([4]; first compound 0.001 µM) | relative viability ([2]; first compound 0.001 µM) |
| --- | --- | --- | --- | --- | --- | --- | --- | --- | --- | --- | --- | --- | --- | --- | --- | --- | --- | --- | --- | --- |
| NCI-H1703 | 0.286 | 0.224 | 0.236 | 0.273 | 0.284 | 0.421 | 0.231 | 0.126 | 0.154 | 0.121 | 0.168 | 0.128 | 0.107 | 0.0623 |  |  |  |  |  |  |
| NCI-H1792 | 0.266 | 0.286 | 0.284 | 0.274 | 0.285 |  |  |  |  |  | 0.96 | 0.742 | 0.38 | 0.0881 | 0.456 | 0.451 | 0.396 | 0.174 |  |  |
| NCI-H2009 | 0.607 | 0.83 | 0.799 | 0.688 | 0.782 | 1.26 | 1.21 | 0.355 | 0.0701 |  |  |  |  |  | 0.312 | 0.287 | 0.295 | 0.119 | 0.232 | 1.25 |
| NCI-H2023 | 0.225 | 0.232 | 0.189 | 0.192 | 0.217 | 0.896 | 0.894 | 0.948 | 0.0777 |  |  |  |  |  | 0.614 | 0.669 | 0.269 | 0.0795 | 0.486 | 0.957 |
| NCI-H2228 | 0.392 | 0.308 | 0.362 | 0.164 | 0.0922 | 0.883 | 0.633 | 0.0979 | 0.096 |  |  |  |  |  | 0.584 | 0.697 | 0.103 | 0.109 | 0.235 | 0.902 |
| NCI-H2342 |  |  |  |  |  | 1.06 | 1.08 | 0.988 | 0.621 | 0.462 | 0.513 | 0.689 | 0.609 | 0.347 | 0.851 | 0.862 | 0.949 | 0.633 | 0.844 | 1.04 |
